Data on three sequences can be found in PMC8541546, “Identification of HLA-A2-Restricted Mutant Epitopes from Neoantigens of Esophageal Squamous Cell Carcinoma” (Vaccines, 2021).

Data set [1] relates to KYSE140-MUT cells. Description: Intracellular staining (granzyme B) of CTLs from immunized Tg mice. It counts as in vivo, HLA-A2.1/K^b Tg mice. The conditions noted are these: 100 μg/mouse s.c. with CpG ODN 1826 once a week for three weeks; spleen lymphocytes re-stimulated with MUT peptide; KYSE140-MUT target cells; n = 5 per group. The procedure:
(§1) To investigate whether neoepitopes could induce a peptide-specific T cell response in vivo, HLA-A2.1/K^b Tg mice were used and immunized according to the procedure de-scribed previously. In brief, mutant peptides or WH-mutant peptides (100 μg per mouse) with CpG-ODN 1826 (30 μg per mouse) were injected s.c. in the back of HLA-A2.1/K^b Tg mice (five mice per group, randomly grouped) once a week for three weeks. The normal saline (NS) group was immunized s.c. only with CpG ODN 1826 (30 μg/mouse) once a week for three weeks. Five days after the last injection, spleen lymphocytes were isolated and cultured at the concentration of 5 × 10^6 cells/mL in RPMI 1640 medium. These cells were induced by the same mutant peptides (10 μg/mL) that were used for in vivo stimulation and mIL-2 (30 U/mL) for a week. Intracellular cytokine staining assay (ICS) and cytotoxic assay (E: T ratios = 20:1, 40:1, 80:1) were performed after a week induced in vitro [22].
To test the MUT peptides stimulation of CTL response in vivo, peptide-specific T cells induced from Tg mice were co-cultured with tumor cell lines transfected with WT or MUT minigenes, as described in the in vitro assay. These T cells were marked by surface marker antibodies anti-mouse CD3 and CD8α before fixation and permeabilization. Intracellular cytokines were marked by anti-mouse IFN-γ or anti-mouse granzyme B, respectively, and analyzed by flow cytometry (BD FACSCelesta™, USA).

Data set [2] has as its system KYSE140-MUT cells. The data set is described as follows: Cytotoxicity assay (Cell Trace Far Red) of CTLs from immunized Tg mice. It counts as in vivo, HLA-A2.1/K^b Tg mice. The note with it: KYSE140-MUT group, E/T of 80:1, 4 h. On the procedure:
as §1
The cytotoxicity of peptide-specific T cells stimulated by mutant peptides was tested by using Cell Trace Far Red (Thermo Scientific, USA). Transfected cells were suspended in PBS (1 × 10^6 cells/mL) and labelled with Cell Trace Far Red as follows: Control target cells and test target cells were marked by 50 μM and 1 mM Cell Trace Far Red, respectively, at 37 °C for 20 min, protected from light. After incubation, target cells were washed with complete media at 37 °C for 5 min. […] Subsequently, test target cells were mixed with control target cells in a tube, washed once, and analyzed by flow cytometry. Specific lysis (%) = (numbers of control target cells—numbers of test target cells)/numbers of control target cells × 100% [28, 29], where, for tumor cells, the control target cells refer to KYSE140-WT cells marked with 50 μM Cell Trace Far Red, and the test target cell refers to KYSE140-WT or KYSE140-MUT cells marked with 1 mM Cell Trace Far Red, respectively (peptide-specific T cells generated from donors G–K’s PBMCs in vitro or generated from spleen lymphocytes of HLA-A2.1/K^b Tg mice in vivo). […]

Data set [3] has as its system peptide-pulsed T2A2 cells. The data set is described as follows: IFN-γ intracellular staining of peptide-induced T cells from donor PBMCs. The data set is classed as cell-based, human. The note with it: PBMCs of HLA-A2+ donors B–F, DCs pulsed with 10 μg/mL peptide, three rounds. On the procedure: (§2) DCs involve and play an important role in initiating CD8^+ T cell response. Consequently, ten HLA-A2^+ healthy donors’ PBMCs were isolated, autologous DCs were generated, and CTLs were induced according to the procedure described previously. In brief, PBMCs were seeded at a density of 5 × 10^6 cells/well in a 6-well plate, and after 3 h, the non-adherent cells were removed and cryopreserved for future incubation with mature autologous DCs. Differentiation of the adherent cells into dendritic cells was induced by GM-CSF (100 ng/mL, #300-03, PeproTech, Rocky Hill, NJ, USA) and IL-4 (100 ng/mL; #200-04, PeproTech, USA), with replenishment every 2 days. On day 5, maturation of DCs was induced using 100 ng/mL LPS (#L4516, Sigma-Aldrich, St. Louis, MO, USA), and maturation was checked on day 8 by flow cytometry (BD FACSCelesta™) using markers for anti-human HLA-DR, anti-human CD80, and anti-human CD86. Then, mature DCs (1 × 10^5) were pulsed with each 10 μg /mL individual peptide or no peptides (control) for 2 h at 37 °C. Next, peptide-pulsed DCs were used to prime the previously cryopreserved autologous peripheral blood lymphocytes (PBLs) at a DC/PBL ratio of 1:10 using complete RPMI-1640 media supplemented with 100 IU/mL rhIL-2 (#200-02, PeproTech, USA) and 10 ng/mL rhIL-7 (#200-07, PeproTech, USA). Half of the feeding medium was replenished every 2 days. After 7 days, PBLs were restimulated with freshly pulsed autologous DCs every 7 days.
When target cells were peptide-pulsed T2A2 cells (MUT peptide or its corresponding WT peptide), peptide-specific T cells (from HLA-A2^+ healthy donors B–F) stimulated by MUT peptides were co-cultured with these cells in the presence of BFA for 5 h. Then T cells were marked by anti-human CD3 and anti-human CD8α monoclonal antibody. Thirty minutes later, cells were fixed by fixation buffer (Thermo Scientific, Waltham, MA, USA) for thirty minutes and washed by permeabilization buffer (Thermo Scientific, USA). Permeabilized T cells were marked by anti-human IFN-γ monoclonal antibody.

In data set [4] the test system is peptide-pulsed T2A2 cells. The data set is described as follows: Cytotoxicity assay of peptide-induced T cells from donor PBMCs. It counts as cell-based, human. The note with it: donors B–F; E/T 12.5:1, 25:1, 50:1; T2A2 loaded with 50 μg/mL peptide. On the procedure:
as §2
The cytotoxicity of peptide-specific T cells stimulated by mutant peptides was tested by using Cell Trace Far Red (Thermo Scientific, USA). Transfected cells were suspended in PBS (1 × 10^6 cells/mL) and labelled with Cell Trace Far Red as follows: Control target cells and test target cells were marked by 50 μM and 1 mM Cell Trace Far Red, respectively, at 37 °C for 20 min, protected from light. After incubation, target cells were washed with complete media at 37 °C for 5 min. […] Subsequently, test target cells were mixed with control target cells in a tube, washed once, and analyzed by flow cytometry. Specific lysis (%) = (numbers of control target cells—numbers of test target cells)/numbers of control target cells × 100% [28, 29], where, for tumor cells, the control target cells refer to KYSE140-WT cells marked with 50 μM Cell Trace Far Red, and the test target cell refers to KYSE140-WT or KYSE140-MUT cells marked with 1 mM Cell Trace Far Red, respectively (peptide-specific T cells generated from donors G–K’s PBMCs in vitro or generated from spleen lymphocytes of HLA-A2.1/K^b Tg mice in vivo). Additionally, for T2A2 target cells, T2A2 cells unpulsed and marked with 50 μM Cell Trace Far Red were used as the control target cells, while T2A2 cells loaded with MUT peptides or the corresponding WT peptides (50 μg/mL) or T2A2 cells only were marked with 1 mM Cell Trace Far Red and were used as test target cells (peptide-specific T cells stimulated from donors B–F’s PBMCs).

As to LLGPNSFEV [TP53-R267P], in data set [1], the “granzyme B expression of CTLs” value is 0.7%. For the same sequence, the “lysis rate (specific lysis)” value in data set [2] was determined as 71.5%. Moreover, in data set [3], the “IFN-γ release of MUT peptide-induced T cells, MUT versus WT peptide-loaded T2A2 cells” value is given as “immunogenic”. For the same sequence, the “lysis cytotoxicity of MUT peptide-induced T cells on T2A2 cells” value (from here on “lysis cytotoxicity”) in data set [4] is on record as “could efficiently lyse corresponding MUT peptide-pulsing T2A2 cells”.
ILWRQDINL [NFE2L2-D13N]: the “granzyme B expression of CTLs” value in data set [1] came to 2.3%. Further, in data set [2], the “lysis rate (specific lysis)” value is listed as 69.5%. In addition, the “IFN-γ release of MUT peptide-induced T cells, MUT versus WT peptide-loaded T2A2 cells” value in data set [3] is reported as “immunogenic”. Besides, the “lysis cytotoxicity” value in data set [4] is listed as “could efficiently lyse corresponding MUT peptide-pulsing T2A2 cells”.
Consider QVTDFLAPL [PCLO-E4090Q], for which, in data set [1], the “granzyme B expression of CTLs” value worked out at 1.5%. In addition, the “lysis rate (specific lysis)” value in data set [2] is on record as 76.7%. Besides, the “IFN-γ release of MUT peptide-induced T cells, MUT versus WT peptide-loaded T2A2 cells” value in data set [3] is “immunogenic”. For the same sequence, the “lysis cytotoxicity” value in data set [4] was “could efficiently lyse corresponding MUT peptide-pulsing T2A2 cells”.
